From patent US20240182470A1, “KRASG12C MUTANT PROTEIN INHIBITOR, PREARATION AND USE THEREOF” (YA THERAPEUTICS INC, priority 2021, published 2024)

test system: H358 (KRAS G12C mutant) cells; assay: Tumor cell proliferation inhibition assay (Cell Titer-Glo, 72 h); type: cell-based; settings: inhibition of tumor cell proliferation, 72 hours with compound, 10% fetal bovine serum; read-out: NCI-H538 IC50(nm)
Experimental: The H358 (KRAS G^12C mutant) cells were digested, centrifuged and resuspended, and the cell density was measured with a Scepter automatic cell counter. The cells were diluted to a solution containing 44,000 cells per milliliter, and the density-adjusted cell solution was 90 microliters per well. into a 96-well culture plate. The 96-well plate was placed in a 37° C., 5% CO2 incubator. After the cells were cultured for 24 hours, different concentrations of the compounds to be tested were added. The cells were incubated with the compounds for 72 hours in the presence of 10% fetal bovine serum. Glo Luminescent Cell Viability Assay Kit (see manufacturer's instructions for details) was used to measure ATP content to assess cell growth inhibition. Briefly, 30 μl of Cell Titer-Glo reagent was added to each well, and the plate was shaken for 10 minutes to induce cell lysis. Fluoroskan
Ascent FL (Thermo) assay was used to record the fluorescent signal, and the maximum signal value was obtained from cells treated with dimethyl sulfoxide for 72 hours. The minimum signal value was obtained from the medium alone (the number of cells was zero), and the % inhibition rate=(the maximum signal value compound signal value)/(the maximum signal value—the minimum signal value×100%, and the data were processed using Graphpadprism 5 software. By sigmoid Dose-response curve fitting to calculate the IC50 value. “A” means IC50≤50 nM; “B” means 50<IC50≤500 nM; “C” means 500<IC50≤2000 nM; “D” means 2000 nM<IC50

`C=C(F)C(=O)N1CCN(c2nc(OC[C@@]34CCCN3CC(F)(F)C4)nc3nc(-c4cccc5cccc(F)c45)ccc23)C[C@@H]1CC#N` [Compound 90, 7-(8-Fluoronaphthyl)-4-(((S)-4-(2-fluoroacryloyl)-3-carbonitrileethylpiperazine)-1-yl)-2-(((S)-2,2-difluorotetrahydro-1H-pyrincyclo-7a(5H)-yl)methoxy)pyridine[2,3-d]lopyrimidine] and `C=C(F)C(=O)N1CCN(c2nc(OC[C@@]34CCCN3CC(F)(F)C4)nc3c(F)c(-c4cccc5cccc(C)c45)ccc23)C[C@@H]1CC#N` [Compound 68, 7-(8-Methylnaphthyl)-8-fluoro-4-(((S)-4-(2-fluoroacryloyl)-3-carbonitrileethylpiperazine)-1-yl)-2-(((S)-2,2-difluorotetrahydro-1H-pyrinyl-7a(5H)-yl)methoxy)quinazoline] cannot be ordered by IC50: ≤ 50 nM for the first, ≤ 50 nM for the second.

“7-(8-Methylnaphthyl)-6-fluoro-4-(((S)-4-(2-fluoro acryloyl)-3-carbonitrileethylpiperazine)-1-yl)-2-(((S)-2,2-difluorotetrahydro-1H-pyrincycl-7a(5H)-yl)methoxy)pyridine[2,3-d]lopyrimidine [Compound 85]” and “7-(3-Hydroxy-8-fluoronaphthyl)-8-fluoro-4-(((R)-4-acryloyl-2-methylpiperazine)-1-yl)-2-(((S)-2,2-difluorotetrahydro-1H-pyrincycline-7a(5H)-yl)methoxy)quinazoline [Compound 70]” cannot be ordered by IC50: ≤ 50 nM for the first, ≤ 50 nM for the second.

`C=C(F)C(=O)N1CCN(c2nc(OC[C@@]34CCCN3CC(F)(F)C4)nc3c(F)c(-c4cccc5cccc(F)c45)c(Cl)cc23)C[C@@H]1CC#N` [Compound 78, 6-Chloro-7-(8-fluoronaphthyl)-8-fluoro-4-(((S)-4-(2-fluoroacryloyl)-3-carbonitrileethylpiperazine)-1-yl)-2-(((S)-2,2-difluorotetrahydro-1H-pyrincycline-7a(5H)-yl)methoxy)quinazoline] and `C=CC(=O)N1CCN(c2nc(OCC34CCCN3CCC4)nc3c(F)c(-c4cccc5cccc(F)c45)ccc23)C[C@@H]1CC#N` [Compound 54, 7-(8-fluoronaphthyl)-8-fluoro-4-(((S)-4-(acryloyl)-3-carbonitrileethylpiperazine)-1-yl)-2-((tetrahydro-1H-pyrin-7a(5H)-yl)methoxy)quinazoline] cannot be ordered by IC50: ≤ 50 nM for the first, ≤ 50 nM for the second.

`C=C(F)C(=O)N1CCN(c2nc(OC[C@@]34CCCN3C[C@H](F)C4)nc3nc(-c4cccc5cccc(F)c45)c(F)cc23)C[C@@H]1CC#N` [Compound 29] and `C=C(F)C(=O)N1CCN(c2nc(OC[C@@]34CCCN3C[C@H](F)C4)nc3nc(-c4cccc5cccc(F)c45)c(F)cc23)[C@H](C)C1` [Compound 30] cannot be ordered by IC50: ≤ 50 nM for the first, ≤ 50 nM for the second.

“6-Chloro-7-(8-fluoronaphthyl)-8-fluoro-4-(((R)-4-acryloyl-2-methylpiperazine)-1-yl)-2-(((2R,7aS)-2-fluorotetrahydro-1H-pyrincycline-7a(5H)-yl)methoxy)quinazoline [Compound 37]” and “7-(8-Methylnaphthalene)-4-(((R)-4-Acryloyl-2-methylpiperazine)-1-yl)-24(1-(N,N-dimethylamineyl)methylcyclopropan-1-yl)methoxy)pyridine[2,3-d]lopyrimidine [Compound 22]” cannot be ordered by IC50: ≤ 50 nM for the first, ≤ 50 nM for the second.

“7-(8-Fluoronaphthyl)-8-fluoro-4-(((S)-4-acryloyl-3-carbonitrileethylpiperazine)-1-yl)-2-(((S)-2,2-Difluorotetrahydro-1H-pyrinyl-7a(5H)-yl)methoxy)quinazoline [Compound 63]” and “7-(8-Methylnaphthyl)-6-fluoro-4-(((R)-4-acryloyl-2-methylpiperazine)-1-yl)-2-(((2R,7aS)-2-fluorotetrahydro-1H-pyrincyclo-7a(5H)-yl)methoxy)pyridine[2,3-d]lopyrimidine [Compound 81]” cannot be ordered by IC50: ≤ 50 nM for the first, ≤ 50 nM for the second.

`C=C(F)C(=O)N1CCN(c2cc(OC[C@@H]3CCCN3C)nc3nc(-c4cccc5cccc(F)c45)c(F)cc23)[C@H](C)C1` [Compound 8] and “7-(8-Methylnaphthyl)-8-fluoro-4-(((S)-4-(2-fluoroacryloyl)-3-carbonitrileethylpiperazine)-1-yl)-2-(((S)-2,2-difluorotetrahydro-1H-pyrincyclo-7a(5H)-yl)methoxy)quinazoline [Compound 72]” cannot be ordered by IC50: ≤ 50 nM for the first, ≤ 50 nM for the second.

`C=CC(=O)N1CCN(c2nc(OCC34CCCN3CCC4)nc3c(F)c(-c4cccc5cccc(F)c45)ccc23)[C@H](C)C1` [Compound 50, 7-(8-fluoronaphthyl)-8-fluoro-4-(((R)-4-acryloyl-2-methylpiperazine)-1-yl)-2-((tetrahydro-1H-pyrinecyclo-7a(5H)-yl)methoxy)quinazoline] and `C=C(F)C(=O)N1C2CCC1CN(c1nc(OC[C@@]34CCCN3C[C@H](F)C4)nc3c(F)c(-c4cc(O)cc5cccc(F)c45)c(Cl)cc13)C2` [Compound 42, 6-Chloro-74(3-hydroxy-8-fluoronaphthyl)-8-fluoro-4-(8-(2-fluoroacryloyl)-3,8-diazabicyclo[3.2.1]octane-3-yl)-2-(((2R,7aS)-2-fluorotetrahydro-1H-pyrincycline-7a(5H)-yl)methoxy)quinazoline] cannot be ordered by IC50: ≤ 50 nM for the first, ≤ 50 nM for the second.

`C=C(F)C(=O)N1CCN(c2nc(OC[C@@]34CCCN3CC(F)(F)C4)nc3nc(-c4cccc5cccc(F)c45)c(F)cc23)C[C@@H]1CC#N` [Compound 83] and “7-(8-Fluoronaphthalene)-4-(((R)-4-Acryloyl-3-carbonitrileethylpiperazine)-1-yl)-24(1-(N,N-dimethylamineyl)methylcyclopropan-1-yl)methoxy)pyridine[2,3-d]lopyrimidine [Compound 21]” cannot be ordered by IC50: ≤ 50 nM for the first, ≤ 50 nM for the second.

“7-(8-Methylnaphthalene)-4-(((R)-4-Acryloyl-3-carbonitrileethylpiperazine)-1-yl)-2-(((1-(pyrrolidin-1-yl))methylcyclopropan-1-yl)methoxy)pyridine[2,3-d]lopyrimidine [Compound 18]” and `C=CC(=O)N1CCN(c2nc(OCC34CCCN3CCC4)nc3c(F)c(-c4cc(O)cc5cccc(F)c45)ccc23)C[C@@H]1CC#N` [Compound 55] cannot be ordered by IC50: ≤ 50 nM for the first, ≤ 50 nM for the second.

Compared with “7-(2-Fluoro-6-hydroxyphenyl)-6-fluoro-4-(((S)-4-(2-fluoroacryloyl)-3-carbonitrileethylpiperazine)-1-yl)-2-(((S)-1-(methyl-d3)pyrrolidin-2-yl)methoxy)pyridine[2,3-d]lopyrimidine [Compound 11]”, `C=CC(=O)N1CCN(c2nc(OC[C@@]34CCCN3C[C@H](F)C4)nc3nc(-c4cc(O)cc5cccc(F)c45)c(F)cc23)[C@H](C)C1` [Compound 36, 7-(3-Hydroxy-8-fluoronaphthyl)-6-fluoro-4-(((R)-4-acryloyl-2-methylpiperazine)-1-yl)-2-(((2R,7aS)-2-fluorotetrahydro-1H-pyrincyclo-7a(5H)-yl)methoxy)pyridine[2,3-d]lopyrimidine] is lower in IC50: > 2000 nM for the first, ≤ 50 nM for the second. The second is the more potent here.

First: 7-(8-Fluoronaphthalene)-4-(((R)-4-Acryloyl-3-carbonitrileethylpiperazine)-1-y1)-2-(((1-(pyrrolidin-1-yl)methylcyclopropan-1-yl)methoxy)pyridine[2,3-d]lopyrimidine [Compound 15]
Second: C=CC(=O)N1CCN(c2nc(OC[C@@H]3CCCN3C)nc3nc(-c4c(O)cccc4F)c(F)cc23)[C@@H](C)C1 [Compound 12, 7-(2-Fluoro-6-hydroxyphenyl)-6-fluoro-4-(((S)-4-(2-acryloyl)-2-methylpiperazine)-1-yl)-2-(((S)-1-(methyl-d3)pyrrolidin-2-yl)methoxy)pyridine[2,3-d]lopyrimidine]
The IC50 of the first is lower: ≤ 50 nM for the first, 500 to 2000 nM for the second. The first is the more potent here.

“7-(8-Methylnaphthyl)-8-fluoro-4-(((R)-4-acryloyl-2-methylpiperazine)-1-yl)-2-(((2R,7aS)tetrakishydrogen-1H-pyrinyl-7a(5H)-yl)methoxy)quinazoline [Compound 61]” and “7-(3-Hydroxy-8-fluoronaphthyl)-8-fluoro-4-(((S)-4-(2-fluoroacryloyl)-3-carbonitrileethylpiperazine)-2-((((S)-2,2-Difluorotetrahydro-1H-pyrincycline-7a(5H)-yl)methoxy)quinazoline [Compound 65]” cannot be ordered by IC50: ≤ 50 nM for the first, ≤ 50 nM for the second.

“7-(8-Chloronaphthalene)-4-(((R)-4-Acryloyl-3-carbonitrileethylpiperazine)-1-yl)-2-(((1-(pyrrolidin-1-yl)methylcyclopropan-1-yl)methoxy)pyridine[2,3-d]lopyrimidine [Compound 16]” and “7-(8-Fluoronaphthyl)-6-fluoro-4-(((R)-4-acryloyl-2-methylpiperazine)-1-yl)-2-(((S)-2,2-difluorotetrahydro-1H-pyrincycl-7a(5H)-yl)methoxy)pyridine[2,3-d]lopyrimidine [Compound 79]” cannot be ordered by IC50: ≤ 50 nM for the first, ≤ 50 nM for the second.

With `C=CC(=O)N1CCN(c2nc(OC[C@@]34CCCN3C[C@H](F)C4)nc3nc(-c4cccc5cccc(C)c45)ccc23)[C@H](C)C1` [Compound 89, 7-(8-Methylnaphthyl)-4-(((R)-4-Acryloyl-2-methylpiperazine)-1-yl)-2-(((2R,7aS)-2-fluorotetrahydro-1H-pyrincycl-7a(5H)-yl)methoxy)pyridine[2,3-d]lopyrimidine] the IC50 was ≤ 50 nM.
